These results are taken from patent publication US10689381B2 (priority 2017, dated 2020).

Series [1] concerns HCT116. Briefly: cells. Format: cell-based, human. As to conditions: for potency relative to vinblastine (less potent / reduced activity): vinblastine-sensitive cell lines. Put shortly: (§1)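 Compound exposure ran 72 h at six concentrations (0–1000 nM or 0–10000 nM, duplicate) on cells plated at 30,000 cells/mL in 10% FBS DMEM. A closing 37 °C incubation took 15 min (HCT116) or 5 min (L1210).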

For another series, the system named is HCT116/VM46. Kind of series: cells. Format: cell-based, human. The procedure:
Compounds were tested for their cell growth inhibition of L1210 (ATCC no. CCL-219, mouse lymphocytic leukemia), HCT116 (ATCC no. CCL-247, human colorectal carcinoma), and HCT116/VM46 (a vinblastine-resistant strain of HCT116) cells in culture. A population of cells (>1×10^6 cells/mL as determined with a hemocytometer) was diluted with Dulbecco's Modified Eagle Medium (DMEM, Gibco) containing 10% fetal bovine serum (FBS, Gibco) to give a final concentration of 30,000 cells/mL. To each well of a 96-well plate (Corning® Costar®) was added 100 μL of the cell media solution with a multichannel pipet. The cultures were incubated at 37° C. in an atmosphere of 5% CO2 and 95% humidified air for 24 hours.
The test compounds were then added to the plate as follows: test compounds were diluted in DMSO to a concentration of 1 mM. 10-Fold serial dilutions in DMSO were next performed on a separate 96-well plate. Fresh culture media (100 μL) was added to each well of cells resulting in 200 μL of medium per well followed by 2 μL of each test agent. Compounds were tested in duplicate (n=2-8 times) at six concentrations between 0-1000 nM or 0-10000 nM. Following the addition of compound, cultures were incubated for an additional 72 hours.
The plates were incubated at 37° C. for 5 minutes (L1210) or 15 min (HCT116 and HCT116/VM46). After the given incubation time, 50 μL of 0.1 N NaOH was added to each well and the absorption at 405 nm was determined using a 96 well plate reader. […]

Series [2] relates to HCT116. As to conditions: Table 1, footnote b: Reported in ref. 41; cited from earlier work.
For series [3], the system named is L1210. Conditions: Table 1, footnote b: Reported in ref. 41; cited from earlier work.
Series [4] deals with L1210. Briefly: cells. Format: cell-based, mouse. Put shortly:
as §1

Another series has as its system A549-T24. Kind of series: cells. The series is classed as cell-based, human. The source says:
(§2) 2001, 98:11737; Kavallaris et al., Brit. J. Cancer. 1999, 80:1020; and Kavallaris et al., J. Clin. Invest. 1997, 100:1282]. As a result, the comparison of cell growth inhibition of candidate drugs against A549 vs A549-T24 has been used to characterize potential resistance due to increased expression of class III β-tubulin [Goncalves et al., Proc. Natl. Acad. Sci. USA. 2001, 98:11737; Kavallaris et al., Brit. J. Cancer. 1999, 80:1020; and Kavallaris et al., J. Clin. Invest. 1997, 100:1282].

The subject of a further series is A549. Kind of series: cells. Format: cell-based, human. As to conditions: read-out: IC50 A549.
Source text: as §2

Another series can be described thus: cells. The series is classed as cell-based, human. As to conditions: range over L1210 and HCT116, stated in text; read-out: IC50 against vinblastine-sensitive cell lines. Put shortly: as §1
Another series concerns Tubulin. As to conditions: for % displacement: Table 9, displacement of tubulin bound BODIPY-vinblastine.
For another series, the target named is Pgp (Homo sapiens, UniProt P08183). Kind of series: Drug-stimulated Pgp ATPase activity in membranes (MDR1 PREDEASY ATPase kit).
[5] abbreviates: Table 6, read-out: IC50 HCT116/VM46.
Where [6] appears, read: Table 10, read-out: IC50 (nM), HCT116/VM46.

Structures are written as SMILES. Converted amounts (≈) assume the structure as drawn. Like-named read-outs stand apart in the source and are kept apart here.

Sequence of Pgp (P08183 whole entry): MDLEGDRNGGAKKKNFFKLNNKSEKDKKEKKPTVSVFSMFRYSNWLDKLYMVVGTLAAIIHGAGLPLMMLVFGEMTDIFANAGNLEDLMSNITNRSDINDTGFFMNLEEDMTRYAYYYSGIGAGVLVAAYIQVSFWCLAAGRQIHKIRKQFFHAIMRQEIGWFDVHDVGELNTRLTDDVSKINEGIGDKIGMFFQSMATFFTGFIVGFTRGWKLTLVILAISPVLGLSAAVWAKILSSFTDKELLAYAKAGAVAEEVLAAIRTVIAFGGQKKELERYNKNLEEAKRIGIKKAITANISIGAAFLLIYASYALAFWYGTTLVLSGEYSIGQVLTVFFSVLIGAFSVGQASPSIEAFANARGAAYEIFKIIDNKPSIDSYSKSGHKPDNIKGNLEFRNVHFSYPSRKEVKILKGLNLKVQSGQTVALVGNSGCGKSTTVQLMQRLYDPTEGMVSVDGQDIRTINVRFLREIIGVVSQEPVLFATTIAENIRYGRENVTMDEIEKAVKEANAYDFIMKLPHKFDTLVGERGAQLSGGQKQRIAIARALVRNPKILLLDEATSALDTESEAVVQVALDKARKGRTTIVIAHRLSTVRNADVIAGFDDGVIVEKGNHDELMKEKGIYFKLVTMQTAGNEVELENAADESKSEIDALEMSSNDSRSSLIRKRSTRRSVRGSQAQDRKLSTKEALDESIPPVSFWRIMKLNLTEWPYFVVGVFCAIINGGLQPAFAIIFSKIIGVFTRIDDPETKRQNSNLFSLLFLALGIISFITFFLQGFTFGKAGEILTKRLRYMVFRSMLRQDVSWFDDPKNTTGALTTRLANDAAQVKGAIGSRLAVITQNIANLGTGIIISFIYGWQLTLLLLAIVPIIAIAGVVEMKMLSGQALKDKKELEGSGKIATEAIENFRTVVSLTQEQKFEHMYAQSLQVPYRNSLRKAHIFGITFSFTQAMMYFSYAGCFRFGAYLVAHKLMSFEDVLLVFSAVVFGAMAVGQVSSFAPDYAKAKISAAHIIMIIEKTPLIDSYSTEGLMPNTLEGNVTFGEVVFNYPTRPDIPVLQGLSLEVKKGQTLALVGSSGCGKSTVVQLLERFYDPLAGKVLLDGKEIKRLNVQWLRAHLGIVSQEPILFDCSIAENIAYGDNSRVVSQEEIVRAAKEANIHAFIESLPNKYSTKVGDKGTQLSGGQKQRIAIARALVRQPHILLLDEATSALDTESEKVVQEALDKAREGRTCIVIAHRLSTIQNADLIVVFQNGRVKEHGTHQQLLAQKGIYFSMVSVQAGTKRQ
Procedure for Tubulin: Control studies were performed with BODIPY-VBL in the absence of a competitive ligand (control 1, maximum FI enhancement) and in the absence of tubulin (control 2, no FI enhancement). Percent (%) BODIPY-VBL displacement was calculated by the formula: (control 1 FI−experiment FI)/(Control 1 FI−Control 2 FI)×100%. Reported values are the average of 5 measurements±SD.

Consider `CCC1(NC=O)CC2CN(CCc3c([nH]c4ccccc34)C(C(=O)OC)(c3cc4c(cc3OC)N(C)C3C(O)(C(=O)OC)C(OC(C)=O)C5(CC)C=CCN6CCC43C65)C2)C1` (stereo not drawn) [Compound 9], for which the “activity relative to free amine Compound 6 (more active)” value in the series on HCT116 [1] amounted to 10 fold. The IC50 in the series on HCT116 [1] (read-out: IC50 HCT116) was 0.6 nM; with HCT116/VM46 (read-out: IC50 HCT116/VM46), 7.5 nM; in the series with HCT116 [2], 85 nM; in the series with L1210 [3], 65 nM; in the series on L1210 [4], 0.5 nM; with A549-T24, 0.7 nM. In addition, the IC50 in the series with A549 is 0.7 nM. In addition, in the series on HCT116 [1], the “potency relative to vinblastine (less potent / reduced activity)” value is “approximately 10 fold”. Moreover, the “differential in activity between sensitive and resistant HCT116 cell lines” value (shortened to “differential”) in the series with HCT116/VM46 (HCT116/VM46 vs HCT116) is approximately 80 fold.

`CCC1(NC(=O)c2ccc3c(c2)CCCO3)CC2CN(CCc3c([nH]c4ccccc34)C(C(=O)OC)(c3cc4c(cc3OC)N(C)C3C(O)(C(=O)OC)C(OC(C)=O)C5(CC)C=CCN6CCC43C65)C2)C1` (stereo not drawn) [Compound 173]: the IC50 with HCT116 [1] (Table 6, read-out: IC50 HCT116) was 0.5 nM; in the series on HCT116 [1] (Table 9, read-out: IC50 (nM, HCT116)), 0.5 nM; in the series on HCT116 [1] (Table 10, read-out: IC50 (nM), HCT116), 0.5 nM; in the series with HCT116 [1] (read-out: IC50 HCT116), 0.5 nM; in “cells”, 0.4 to 0.5 nM; in the series with HCT116/VM46 (setting [5]), 1.8 nM. Moreover, the IC50 came out at 1.8 nM in the series with HCT116/VM46 (setting [6]); 1.8 nM with HCT116/VM46 (read-out: IC50 HCT116/VM46); 1.8 nM in the series on HCT116/VM46 (read-out: IC50 against resistant HCT116 cell line); 0.4 nM with L1210 [4]; 0.4 nM in the series on L1210 [4] (Table 6); 0.8 nM in the series with A549-T24. Besides, the IC50 in the series with A549 was 1.4 nM. For the same compound, the “differential” value with HCT116/VM46 (HCT116/VM46 vs HCT116) is 3.8 fold. In addition, the “% displacement” value with Tubulin worked out at 98 ± 7%.

Take `CC[C@]1(NC(C)=O)C[C@H]2CN(CCc3c([nH]c4ccccc34)[C@@](C(=O)OC)(c3cc4c(cc3OC)N(C)[C@H]3[C@@](O)(C(=O)OC)[C@H](OC(C)=O)[C@]5(CC)C=CCN6CC[C@]43[C@@H]65)C2)C1` [Compound 10, 20′-Acetamidovinblastine]: in the series with HCT116 [1], the “activity relative to free amine Compound 6 (more active)” value came to 10 fold. Further, the “potency relative to vinblastine (less potent / reduced activity)” value in the series on HCT116 [1] was “approximately 10 fold”. The “differential” value in the series on HCT116/VM46 (HCT116/VM46 vs HCT116) is approximately 80 fold. The IC50 was 90 nM with HCT116 [2] and 65 nM in the series with L1210 [3].

Regarding `CC[C@]1(O)C[C@@H]2CN(CCc3c([nH]c4ccccc34)[C@@](C(=O)OC)(c3cc4c(cc3OC)N(C)[C@H]3[C@@](O)(C(=O)OC)[C@H](OC(C)=O)[C@]5(CC)C=CCN6CC[C@]43[C@@H]65)C2)C1` [Vinblastine (1), Vinblastine, reference compound], the “MIC, HCT116/VM46 cells” value with HCT116/VM46 is listed as 600 nM (≈ 0.487 µg/mL). For the same compound, the “differential” value in the series with HCT116/VM46 is on record as 88 fold. Further, the IC50 amounted to 600 nM in the series on HCT116/VM46 (Table 1, read-out: IC50 HCT116/VM46); 600 nM with HCT116/VM46 (Table 2, read-out: IC50 HCT116/VM46); 600 nM in the series with HCT116/VM46 (Table 3, read-out: IC50 HCT116/VM46); 600 nM in the series on HCT116/VM46 (Table 4, read-out: IC50 HCT116/VM46); 600 nM in the series with HCT116/VM46 (Table 5, read-out: IC50 HCT116/VM46); 600 nM in the series with HCT116/VM46 (setting [5]). In addition, the IC50 in the series with HCT116/VM46 (Table 7, C20′ sulfonamides, read-out: IC50 HCT116/VM46) was found to be 600 nM; with HCT116/VM46 (Table 8, 10′-F compounds, read-out: IC50 HCT116/VM46), 600 nM; in the series with HCT116/VM46 (setting [6]), 600 nM; in the series with HCT116/VM46 (read-out: IC50 HCT116/VM46) it was 600 nM; in the series on HCT116/VM46 (table in Background, C20′ substituent X, read-out: IC50, HCT116/VM46), 600 nM; in the series with L1210 [4] it was 6 nM. For the same compound, the IC50 in the series on L1210 [4] (Table 1), in the series with L1210 [4] (Table 2), with L1210 [4] (Table 3), in the series on L1210 [4] (Table 4), in the series on L1210 [4] (Table 5) and with L1210 [4] (Table 6) was 6 nM in each case. Also, the IC50 turned out to be 6 nM in the series with L1210 [4] (Table 7, C20′ sulfonamides); 6 nM in the series with L1210 [4] (Table 8, 10′-F compounds); 6.7 nM in the series with A549-T24; 7.7 nM in the series with A549. Also, the “Papp, B to A” value in the series with Caco-2 cells is 38.2 ± 2.0 x 10^−6 cm/s. In addition, on Pgp, the “% Pgp ATPase activity” value was determined as 87%. For the same compound, the “percent (%) displacement of tubulin-bound BODIPY-vinblastine” value in the series with Tubulin (FIG. 2, competitive ligand 18 μM) worked out at 50%. The “% displacement” value with Tubulin was 61 ± 13%.

On to `CC[C@]1(NC(=O)c2ccc(OC)c(OC)c2)C[C@H]2CN(CCc3c([nH]c4ccc(F)cc34)[C@@](C(=O)OC)(c3cc4c(cc3OC)N(C)[C@H]3[C@@](O)(C(=O)OC)[C@H](OC(C)=O)[C@]5(CC)C=CCN6CC[C@]43[C@@H]65)C2)C1` [Compound 190], for which the IC50 with HCT116 [1] (Table 8, 10′-F compounds, read-out: IC50 HCT116) is 0.08 nM; in the series “cells” it was 0.06 to 0.08 nM; in the series on L1210 [4] (Table 8, 10′-F compounds), 0.06 nM.

As for `CC[C@]1(NC(=O)C(F)(F)F)C[C@H]2CN(CCc3c([nH]c4ccccc34)[C@@](C(=O)OC)(c3cc4c(cc3OC)N(C)[C@H]3[C@@](O)(C(=O)OC)[C@H](OC(C)=O)[C@]5(CC)C=CCN6CC[C@]43[C@@H]65)C2)C1` [Compound 11], the IC50 was 690 nM in the series on HCT116 [2] and 660 nM in the series on L1210 [3].
